# According to patent US10154992B2, “Compounds and methods for treating HIV infection” (THE REGENTS OF THE UNIVERSITY OF CALIFORNIA, priority 2016, dated 2018):
# Where two headings read alike, the source gives them in different places.
# How the values were obtained:
# [1] = test system: HIV-1 isolate NL4-3; assay: Virus spreading / replication assay in Jurkat cells, p24 ELISA; type: cell-based
# Description: (§1) Virus spreading assay. Jurkat (E6-1) cells (NIH AIDS Reagent Program) were cultured in RPMI media supplemented with 25 mM HEPES pH 7.4, 10% heat-inactivated fetal calf serum (Hyclone, Waltham Mass.), and 1% penicillin/streptomycin. 2.5×10^5 Jurkat cells were inoculated with 250 pg p24 in 250 μl media in a 96-well flat bottom polystyrene cell culture microplate. Input virus was removed after 18 hours via washing cells phosphate-buffered saline (PBS). Cells were resuspended in 250 μl of media containing compounds at the described concentrations. Cells were incubated at 37° C., 5% CO2 and supernatant samples were removed every 48 hours and replaced with fresh media containing the compounds. Viral replication was quantified using ELISA to quantify p24 viral capsid protein in the culture supernatant. Mouse monoclonal and rabbit polyclonal α-p24 antibodies used in the ELISA were obtained from the NIH AIDS Reagent Program. Toxicity was monitored using the MTT cell viability assay (Mosmann, T. (1983). J Immunol Methods 65, 55-63).
# [2] = Caco-2 permeability; type: in vitro ADME; settings: human
# From the text: We next evaluated analogs 2b, 2f, 4a, and 4e in a panel of standard in vitro ADME assays to assess drug-like properties and the potential for efficacy in animals.
# [3] = test system: HIV-1 isolate NL4-3 deleted for Vpu; assay: Replication assay in Jurkat cells with Vpu-deleted virus; type: cell-based; settings: Human immunodeficiency virus 1, NL43, Jurkat, read-out: IC50 value for isolate NL4-3 deleted for Vpu
# Description: FIG. 10. In embodiments, HIV viruses that are defective or deleted for Vpu are resistant to the compounds described herein. Replication assays with HIV-1 isolate NL4-3 or NL4-3 deleted for Vpu in Jurkat cells. Replication spreading assays were performed with compound at doses ranging from 1 nM to 316 nM in triplicate. Supernatants were collected every 48-72 hours and p24 values were determined by ELISA. FIG. 10 corresponds to analog 4e with HIV-1 isolate NL4-3 in Jurkat cells and with HIV-1 isolate NL4-3 deleted for Vpu in Jurkat cells.
# as §1, with “Cells were incubated at 37° C., 5% CO2 and supernatant samples were removed every 48 hours and replaced with fresh media containing the compounds.” left out, “Mouse monoclonal and rabbit polyclonal α-p24 antibodies used in the ELISA were obtained from the NIH AIDS Reagent Program.” left out, “55-63). […]” for “55-63).”
# [4] = test system: A7854G mutant (RRE) virus; assay: Replication of RRE A7854G resistant virus; type: cell-based, HIV
# [5] = target: T1, Rev-RRE IIB interaction (Human immunodeficiency virus type 1 group M subtype B, UniProt P04608+P04618); type: cell-based, HIV
# T1 construct: with a fusion to HIV Rev (residues 3-70) was generated; expressed in transfected cells
# Description: A library of approximately 4500 carboxamide-containing compounds was assembled and tested in the reporter cell line at 30 μM. Reporter cells were plated in a white 96-well plate and compounds were added to the cells using a Biomek FX robotic liquid handler (Beckman Coulter). The cells were incubated with the compound for 48 hours then assayed for luciferase activity (Promega Bright Glo). The cytotoxicity of each compound was determined in parallel via MTT-based cell viability assays.
# (§2) Cells were counted and plated into white 384-well or 96-well cell-culture treated assay plates and compounds were added. After 48 hours, the cells were prepared for luminescence assays that were performed on a plate reader (Tecan Evolution or MD Analyst). The cytotoxicity of each compound was determined in parallel via MTT-based cell viability assays.
# as §2, with “Tat hybrid reporter assay. […] Previously characterized thienopyridines and diaminoacridine were used as controls. Cells” for “Cells”, “384-well” for “384-well or 96-well”, “lumincescence” for “luminescence”
# The RRE IIB-Rev screening cell line was plated in 384-well assay plates and compounds were added to the cells to a final concentration of 30 μM. Cells were prepared and assayed for luciferase activity. […] In parallel, MTT cell viability assays were performed to assess the toxicity of compounds and minimize the level of false positives.
# [6] = test system: HIV RRE (Rev-dependent) reporter; assay: Rev reporter assay in 293T cells, p24 ELISA; type: cell-based; settings: Human immunodeficiency virus 1, HEK-293T, Table 2
# Description: Rev reporter assay. In the Rev reporter assay, 293T cells were transfected with an HIV RRE (Rev-dependent) reporter plus a pSV2 Rev expression plasmid (Hope, T. J., et al. (1990) Proc. Natl. Acad. Sci. USA 87, 7787-7791). Compounds were incubated with the cells for 48 hours and reporter activity was assessed by p24 ELISA. Leptomycin B, an inhibitor of the Crm1 pathway that inhibits Rev-dependent export, was included as a control. The cytotoxicity of each compound was determined in parallel via MTT-based cell viability assays.
# [7] = test system: clinical isolates of HIV-1; assay: HIV-1 replication assay in PBMCs, p24 ELISA; type: cell-based
# Description: HIV-1 replication assay in PBMCs. Virus isolates were obtained from the NIH AIDS Reagent Program. Human PBMCs, seronegative for HIV and hepatitis B virus (Astarte Biologics, LLC) were stimulated in R-3 medium (RPMI 1640 medium with 25 mM HEPES and L-glutamine, 20% heat-inactivated fetal bovine serum, 1% penicillin/streptomycin, 201U/mL IL-2) with 5 µg/mL phytohemagglutinin (PHA-P) for 48 to 72 h. Stimulated PBMCs were resuspended and diluted in fresh R-3 medium and added to 96-well plates at 5×10^4 cells/well. The 50% tissue culture infective dose (TCID50) of each virus stock was measured by end-point dilution assay described by Reed and Muench (Reed, L. J., and Muench, H. (1938) American Journal of Hygiene 27, 493-497). Spinoculation (1,200×g, 2 hrs) was applied to improve the efficiency of infection.
# Cells were infected with 40 TCID50s of virus stock under spinoculation in the presence of different concentrations of test compounds (biological quintuplicate wells/concentration) and incubated at 37° C., 5% CO2 for 7 days. On day 4, half of the supernatant was removed and replaced with fresh R-3 medium containing the appropriate concentration of test compounds. On day 7, cell-free supernantant samples were collected for analysis of p24 antigen expression measured by ELISA described above. Antiviral activity was assessed by the inhibition of p24 expression (Reed, L. J., and Muench, H. (1938) American Journal of Hygiene 27, 493-497.
# T1 sequence (P04608 whole entry, looked up, the tested form may be a part): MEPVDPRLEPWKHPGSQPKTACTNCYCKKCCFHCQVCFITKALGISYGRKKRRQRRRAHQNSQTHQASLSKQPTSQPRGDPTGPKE
# T1 sequence (P04618 whole entry, looked up, the tested form may be a part): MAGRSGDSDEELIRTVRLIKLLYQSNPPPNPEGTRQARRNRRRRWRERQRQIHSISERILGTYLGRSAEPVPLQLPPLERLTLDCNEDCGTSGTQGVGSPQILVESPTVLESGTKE
structure (smiles),measurement,setting,value
"NC(=O)c1cc2c(-c3ccc4c(c3)CCO4)cncc2s1 [Compound 4e, 4-(2,3-dihydro-1-benzofuran-5-yl)thieno[2,3-c]pyridine-2-carboxamide]",IC50,"[1]; Human immunodeficiency virus 1, NL43, Jurkat, FIG. 17, first pair of values, read-out: IC50 NL4-3 control",6.2 nM
same,IC50,"[1]; Human immunodeficiency virus 1, NL43, Jurkat, FIG. 17, second pair of values ('Notably'), read-out: IC50 control",25.9 nM
same,IC50,"[1]; Human immunodeficiency virus 1, NL43, Jurkat, Table 2, NL4-3, read-out: Jurkat HIV-1 replication assay",< 100 nM
same,IC50,"[1]; Human immunodeficiency virus 1, NL43, Jurkat, read-out: IC50 in the HIV replication assay",4 nM
same,IC50,"[1]; Human immunodeficiency virus 1, NL43, Jurkat cells, wild type virus, Vpu experiment (FIG. 10), read-out: IC50 value for isolate NL4-3",5 nM
same,Papp,[2],66.6 ×10⁻⁶ cm/s
same,IC50,[3],150 nM
same,IC50,"[4]; Human immunodeficiency virus 1, read-out: IC50 A7854G mutant",218 nM
same,IC50,"[4]; Human immunodeficiency virus 1, read-out: IC50 resistant-virus",5.1 nM
same,activity in the Tat-hybrid reporter assay,[5],low-nM potency
same,EC50,[6],100 to 500 nM
same,IC50,"[7]; Human immunodeficiency virus 1, BAL, CCR5, PBMC, viral isolate Ba-L, coreceptor CCR5",< 100 nM
same,IC50,"[7]; Human immunodeficiency virus 1, CCR5, PBMC, viral isolate 92HT593, coreceptor CXCR4, CCR5",< 100 nM
same,IC50,"[7]; Human immunodeficiency virus 1, CCR5, PBMC, viral isolate 92TH014, coreceptor CCR5",< 100 nM
same,IC50,"[7]; Human immunodeficiency virus 1, CCR5, PBMC, viral isolate 93BR021, coreceptor CCR5",< 100 nM
same,IC50,"[7]; Human immunodeficiency virus 1, CCR5, PBMC, viral isolate 93BR028, coreceptor CCR5",< 100 nM
same,IC50,"[7]; Human immunodeficiency virus 1, PBMC, PBMC, viral isolate 92HT599, coreceptor CXCR4",< 100 nM
same,IC50,"[7]; Human immunodeficiency virus 1, PBMC, PBMC, viral isolate 92UG005, coreceptor CXCR4",< 100 nM
same,IC50,"[7]; Human immunodeficiency virus 1, PBMC, PBMC, viral isolate LAI, coreceptor CXCR4",100 to 500 nM
